# Earlier results in patent US12219980B2, “Nutritionally enhanced fraction from rice bran and method of lowering insulin resistance using same” (QJV, LLC, priority 2010, dated 2025).
# What was measured:
# [1] = animal studies, compared with controls
# [2] = in vivo
# HMG-CoA = molecular target: T1, HMG-CoA (Homo sapiens, UniProt P04035); settings: micromolar amounts
# T1 sequence (P04035 1-888): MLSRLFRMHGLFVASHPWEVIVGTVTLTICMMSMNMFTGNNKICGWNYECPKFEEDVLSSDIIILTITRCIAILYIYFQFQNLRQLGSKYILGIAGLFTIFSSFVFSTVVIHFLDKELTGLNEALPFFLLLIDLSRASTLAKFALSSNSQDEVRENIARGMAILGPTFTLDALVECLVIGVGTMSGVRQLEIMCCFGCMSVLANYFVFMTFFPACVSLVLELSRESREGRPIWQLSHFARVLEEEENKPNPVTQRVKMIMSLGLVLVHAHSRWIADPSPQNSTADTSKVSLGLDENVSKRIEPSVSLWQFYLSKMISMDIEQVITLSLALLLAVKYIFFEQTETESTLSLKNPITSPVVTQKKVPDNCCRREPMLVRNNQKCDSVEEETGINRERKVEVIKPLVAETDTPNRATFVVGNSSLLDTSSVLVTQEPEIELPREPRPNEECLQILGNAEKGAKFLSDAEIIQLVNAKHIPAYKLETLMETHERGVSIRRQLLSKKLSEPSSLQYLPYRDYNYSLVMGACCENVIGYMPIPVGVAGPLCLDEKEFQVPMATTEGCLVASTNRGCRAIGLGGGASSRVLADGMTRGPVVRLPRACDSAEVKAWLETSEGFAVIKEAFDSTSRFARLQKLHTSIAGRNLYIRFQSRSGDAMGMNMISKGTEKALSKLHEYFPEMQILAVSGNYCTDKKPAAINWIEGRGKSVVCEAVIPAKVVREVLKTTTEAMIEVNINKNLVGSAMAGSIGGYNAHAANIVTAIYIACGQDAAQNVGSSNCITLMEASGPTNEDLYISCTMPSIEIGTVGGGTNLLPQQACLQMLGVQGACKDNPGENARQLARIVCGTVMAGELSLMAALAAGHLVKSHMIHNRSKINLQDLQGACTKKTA
# [3] = in vivo; remark: listed apart in the source
compound,measurement,setting,value
COc1cc(/C=C/C(=O)O)ccc1O [ferulic acid],"activities of hepatic glucose-6-phosphate dehydrogenase, catalase and peroxidase",[1],diminishing
same,levels of glycogen in the liver and skeletal muscle,[1],significantly decreased
gamma-oryzanol,bile acid secretion and fecal excretion of cholesterol,[2],affect bile acid secretion and fecal excretion of cholesterol
tocotrienol,activity of HMG-CoA,HMG-CoA,suppress the activity of HMG-CoA
same,total cholesterol and LDL cholesterol in blood plasma,[3],lower
